Source: ChEMBL document CHEMBL1133783, “Diastereoselective synthesis, activity and chiral stability of cyclic alkoxyketone inhibitors of cathepsin K” (Bioorg Med Chem Lett, 2001)

target: T1, Cathepsin K (Homo sapiens, UniProt P43235); experiment: Inhibitory activity was evaluated against cathepsin K
T1 sequence (P43235 whole entry): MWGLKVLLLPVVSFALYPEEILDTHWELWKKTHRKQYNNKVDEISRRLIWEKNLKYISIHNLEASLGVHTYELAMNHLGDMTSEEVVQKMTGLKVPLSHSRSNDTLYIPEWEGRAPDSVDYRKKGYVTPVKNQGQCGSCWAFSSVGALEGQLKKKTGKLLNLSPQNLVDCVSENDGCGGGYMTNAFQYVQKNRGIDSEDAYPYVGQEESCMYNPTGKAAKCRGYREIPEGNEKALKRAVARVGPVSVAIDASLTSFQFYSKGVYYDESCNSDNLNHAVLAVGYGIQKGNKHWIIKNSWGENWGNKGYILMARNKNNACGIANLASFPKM

SMILES	Ki [nM]
COc1ccc(CC(=O)N[C@@H](CC(C)C)C(=O)NC2CCOCC2=O)cc1OC (some centres not stated)	770

target: T1, Cathepsin K; experiment: Inhibition of cathepsin K

SMILES	Ki [nM]
COc1ccc(CC(=O)N[C@@H](CC(C)C)C(=O)NC2CCOCC2=O)cc1OC (some centres not stated)	10
CC(C)C[C@H](NC(=O)c1cc2ccccc2s1)C(=O)N[C@H]1COCC1=O	7
CC(C)C[C@@H](NC(=O)c1ccc2ccccc2c1)C(=O)N[C@@H]1COCC1=O	470
CC(C)C[C@@H](NC(=O)c1cc2ccccc2s1)C(=O)N[C@@H]1COCC1=O	68
CC(C)C[C@H](NC(=O)c1cc2ccccc2s1)C(=O)NC1CCOCC1=O (single isomer, unassigned; diastereomer 2)	70
CC(C)C[C@H](NC(=O)c1ccc2ccccc2c1)C(=O)NC1CCOCC1=O (single isomer, unassigned; diastereomer 2)	380
CC(C)C[C@@H](NC(=O)c1ccc2ccccc2n1)C(=O)N[C@@H]1COCC1=O	590
CC(C)C[C@H](NC(=O)c1ccc2ccccc2c1)C(=O)N[C@H]1COCC1=O	14
CC(C)C[C@H](NC(=O)c1cc2ccccc2s1)C(=O)NC1CCOCC1=O (single isomer, unassigned; diastereomer 1)	8
CC(C)C[C@H](NC(=O)c1ccc2ccccc2n1)C(=O)N[C@H]1COCC1=O	15
CC(C)C[C@H](NC(=O)c1ccc2ccccc2c1)C(=O)NC1CCOCC1=O (single isomer, unassigned; diastereomer 1)	32
